From US20160002250A1, “POLYMORPHS AND SALTS OF A COMPOUND” (FORUM Pharmaceuticals Inc., priority 2013, published 2016)
Converted amounts (≈) assume the structure as drawn. “Also recorded” adds a separate entry of the source. Marks after values point to notes of the source that are not given here.

Columns and labels:
[1] = Thermodynamic aqueous solubility; conditions: for Thermodynamic solubility: 25° C.; for solubility thermodynamic at 24 h: 25 °C, thermodynamic from solid
Method: The suspension was equilibrated at 25° C. for 24 hours then the pH was measured and adjusted with either HCl or NaOH if it deviated by more than 0.3 units from the target pH. The suspension was then filtered through a glass fiber C filter. […] Different volumes of the standard, diluted and undiluted sample solutions were injected.
Analysis was performed on an Agilent HP1100 series system equipped with a diode array detector and using ChemStation software. The following buffers were prepared to carry out the solubility analyses:
pH 1.2—made up by adding 85.0 mL of 0.2M HCl(aq) to 50 mL of 0.2M KCl(aq) and making up to 200 mL. pH 4.5—made up by adding 2.99 g of NaC2H3O2.3H2O to 14.0 mL of 2N AcOH(aq) and making up to 1000 mL. pH 7.4—made up adding 39.1 mL of 0.2M NaOH(aq) to 50.0 mL of a 0.2M KH2PO4 and making up to 200 mL.

[2] = Gravimetric Vapour Sorption (GVS); assay type: physicochemical; conditions: for Form change by XRPD during GVS: RH 0% to 90%; for GVS water uptake (% of mass): RH from 0% to 90%, 25° C.
Method: Sorption isotherms were obtained using a SMS DVS Intrinsic moisture sorption analyzer, controlled by DVS Intrinsic Control software v1.0.0.30. The sample temperature was maintained at 25° C. by the instrument controls. The humidity was controlled by mixing streams of dry and wet nitrogen, with a total flow rate of 200 ml/min. The relative humidity was measured by a calibrated Rotronic probe (dynamic range of 1.0-100% RH), located near the sample. The weight change, (mass relaxation) of the sample as a function of % RH was constantly monitored by the microbalance (accuracy ±0.005 mg).
Typically 5-30 mg of sample was placed in a tared mesh stainless steel basket under ambient conditions. The sample was loaded and unloaded at 40% relative humidity (RH) and 25° C. (typical room conditions). A moisture sorption isotherm was performed as outlined below in Table 4 (2 scans giving 1 complete cycle). The standard isotherm was performed at 25° C. at 10% RH intervals over a 0-90% RH range. Data analysis was undertaken in Microsoft Excel using DVS Analysis Suite. The sample was recovered after completion of the isotherm and re-analyzed by XRPD.

[3] = Six-week stability study (elevated humidity, 60° C., room conditions); assay type: physicochemical; conditions: for Stability to elevated humidity and air oxidation: 60° C. and ambient conditions, XRPD, HPLC, 1H-NMR; for Stability to humidity: elevated humidity and temperature conditions
Method: The stability to elevated humidity and air oxidation was investigated for both Form 1 and Form 2 of the Free Base. Samples of both materials were stored at 40° C./75% RH, 25° C./96% RH, 60° C. in contact with air and ambient conditions (25° C. in contact with air) for six weeks, and analyses by XRPD, HPLC and ^1H-NMR (for oxidation study samples only) were carried out weekly.

[4] = Solubility in solvents, slow cooling and evaporation experiments; assay type: physicochemical; conditions: 50° C.
Method: 4-(4-(imidazo[1,2-b]pyridazin-2-ylmethoxy)phenyl)-2,2-dimethyl-5-(pyridin-4-yl)furan-3(2H)-one (Form 2 or Form 1; ca. 10 mg per experiment) was weighed into vials, and the stated solvents were added, in increasing portions at 50° C. With each addition, the vials were allowed to shake for ˜20 minutes. Any solutions observed were allowed to cool to room temperature. Those experiments that remained as solutions were pin-holed to allow the solvent to slowly evaporate. Any suspensions observed were subjected to heat/cool cycles, between room temperature and 50° C., four hours at each condition.

[5] = Storage at elevated humidity; assay type: physicochemical; conditions: for Change in XRPD pattern on storage: seven days
Method: Samples were place on a glass slide and sealed in an airtight plastic container, along with an open beaker of saturated aqueous salt solution, and stored at a known regulated temperature. A saturated solution of NaCl was used to obtain a relative humidity of 75% at 40° C., whilst a saturated solution of potassium nitrate was used to provide 92% RH at 25° C.

[6] = Stability of amorphous material at room and elevated humidity conditions; assay type: physicochemical
Method: A DSC experiment was performed to assess the possibility of preparing amorphous material by melting and quench cooling. A sample of Form 1 (˜1 mg) was heated to 200° C. until it melted, then quickly cooled down to −80° C. and re-heated at 10° C./min. […] The crystalline Form 1 then melted at 184° C.
The experiment was repeated on a larger scale (batches of ˜60 mg) on the TGA instrument, and the resulting glasses were used as input materials for maturation experiments. Samples were also stored at elevated humidity conditions for re-analysis by XRPD after 24 h.

[7] = 25° C./96% RH, Week 5, samples run after 24 hours in solution
[8] = 40° C./75% RH, 25° C./96% RH, six weeks
[9] = 40° C./75% RH, Week 5, samples run after 24 hours in solution
[10] = 60° C., Week 5, samples run after 24 hours in solution
[11] = Room conditions, Week 5, samples run after 24 hours in solution

CC1(C)OC(c2ccncc2)=C(c2ccc(OCc3cn4ncccc4n3)cc2)C1=O [Form 1, 4-(4-(imidazo[1,2-b]pyridazin-2-ylmethoxy)phenyl)-2,2-dimethyl-5-(pyridin-4-yl)furan-3(2H)-one]
pH of saturated unfiltered solution ([1]; DI water): 7.67
Thermodynamic solubility ([1]; DI water, 24 hours): 60 µg/mL
solubility thermodynamic at 24 h ([1]; deionized water, water, thermodynamic aqueous solubility, at pH 7.67 (Form 1), pH 7.23 (Form 2)): ~60 µg/mL (≈ 145 µM)
pH of saturated unfiltered solution ([1]; pH 1.2 buffer): 1.40
Thermodynamic solubility ([1]; pH 1.2 buffer, 24 hours): 32000 µg/mL
pH of saturated unfiltered solution ([1]; pH 4.5 buffer): 4.67
Thermodynamic solubility ([1]; pH 4.5 buffer, 24 hours): 60 µg/mL
pH of saturated unfiltered solution ([1]; pH 7.4 buffer): 7.46
solubility thermodynamic at 24 h ([1]; pH 7.4 buffer, pH 7.4, aqueous buffer, Thermodynamic solubility, 24 hours): 50 µg/mL (≈ 121 µM)
Form change by XRPD during GVS [2]: No form change
GVS water uptake (% of mass) [2]: 0.9%
Purity (area %) ([3]; 25° C./96% RH, Week 1): 96.6 area %
Purity (area %) ([3]; 25° C./96% RH, Week 2): 95.5 area %
Purity (area %) ([3]; 25° C./96% RH, Week 3): 96.5 area %
Purity (area %) ([3]; 25° C./96% RH, Week 4): 95.9 area %
Purity (area %) [3, 7]: 91.8* area %
Purity (area %) ([3]; 25° C./96% RH, Week 6): 95.5 area %
Stability to elevated humidity and air oxidation [3, 8]: No significant changes; also recorded: no significant degradation
Purity (area %) ([3]; 40° C./75% RH, Week 1): 96.9 area %
Purity (area %) ([3]; 40° C./75% RH, Week 2): 96.3 area %
Purity (area %) ([3]; 40° C./75% RH, Week 3): 96.5 area %
Purity (area %) ([3]; 40° C./75% RH, Week 4): 95.6 area %
Purity (area %) [3, 9]: 95.6* area %
Purity (area %) ([3]; 40° C./75% RH, Week 6): 96.8 area %
Changes after storage at 60° C. ([3]; 60° C., 4 weeks): no significant changes
Purity (area %) ([3]; 60° C., Week 1): 96.8 area %
Purity (area %) ([3]; 60° C., Week 2): 95.2 area %
Purity (area %) ([3]; 60° C., Week 3): 95.5 area %
Purity (area %) ([3]; 60° C., Week 4): 94.8 area %
Purity (area %) [3, 10]: 96.0* area %
Purity (area %) ([3]; 60° C., Week 6): 95.9 area %
Changes by 1H-NMR or HPLC after storage at 60° C. ([3]; 60° C., six weeks): no significant changes
Purity (area %) ([3]; Room conditions, Week 1): 96.5 area %
Purity (area %) ([3]; Room conditions, Week 2): 94.9 area %
Purity (area %) ([3]; Room conditions, Week 3): 96.6 area %
Purity (area %) ([3]; Room conditions, Week 4): 96.0 area %
Purity (area %) [3, 11]: 95.5* area %
Purity (area %) ([3]; Room conditions, Week 6): 95.9 area %
Stability to humidity ([3]; after 6 weeks): No changes observed at elevated
Solubility (volumes) ([4]; MeCN/H2O, 20 volumes): Almost
Change in XRPD pattern on storage ([5]; 25° C./92% RH): no significant change in the XRPD pattern
Change in XRPD pattern on storage ([5]; 40° C./75% RH): no significant change in the XRPD pattern

CC1(C)OC(c2ccncc2)=C(c2ccc(OCc3cn4ncccc4n3)cc2)C1=O [Form 2, 4-(4-(imidazo[1,2-b]pyridazin-2-ylmethoxy)phenyl)-2,2-dimethyl-5-(pyridin-4-yl)furan-3(2H)-one]
pH of saturated unfiltered solution ([1]; DI water): 7.23
solubility thermodynamic at 24 h ([1]; deionized water, water, Thermodynamic solubility, DI water, 24 hours): 40 µg/mL (≈ 97 µM)
thermodynamic aqueous solubility ([1]; deionized water, at pH 7.67 (Form 1), pH 7.23 (Form 2)): about 0.04 mg/ml
pH of saturated unfiltered solution ([1]; pH 1.2 buffer): 1.73
solubility thermodynamic at 24 h ([1]; pH 1.2 buffer, pH 1.2, simulated gastric fluid, Thermodynamic solubility, 24 hours): 37800 µg/mL (≈ 91600 µM)
pH of saturated unfiltered solution ([1]; pH 4.5 buffer): 4.65
solubility thermodynamic at 24 h ([1]; pH 4.5 buffer, pH 4.5, aqueous buffer, Thermodynamic solubility, 24 hours): 50 µg/mL (≈ 121 µM)
pH of saturated unfiltered solution ([1]; pH 7.4 buffer): 7.46
Thermodynamic solubility ([1]; pH 7.4 buffer, 24 hours): 40 µg/mL
Purity (area %) ([3]; 25° C./96% RH, Week 1): 99.3 area %
Purity (area %) ([3]; 25° C./96% RH, Week 2): 98.9 area %
Purity (area %) ([3]; 25° C./96% RH, Week 3): 98.9 area %
Purity (area %) ([3]; 25° C./96% RH, Week 4): 98.9 area %
Purity (area %) [3, 7]: 98.0* area %
Purity (area %) ([3]; 25° C./96% RH, Week 6): 98.9 area %
Stability to elevated humidity and air oxidation [3, 8]: No significant changes; also recorded: no significant degradation
Purity (area %) ([3]; 40° C./75% RH, Week 1): 99.5 area %
Purity (area %) ([3]; 40° C./75% RH, Week 2): 99.1 area %
Purity (area %) ([3]; 40° C./75% RH, Week 3): 99.2 area %
Purity (area %) ([3]; 40° C./75% RH, Week 4): 99.1 area %
Purity (area %) [3, 9]: 98.8* area %
Purity (area %) ([3]; 40° C./75% RH, Week 6): 98.9 area %
Purity (area %) ([3]; 60° C., Week 1): 98.9 area %
Purity (area %) ([3]; 60° C., Week 2): 99.1 area %
1H-NMR ([3]; 60° C., Week 4): Very weak
Purity (area %) ([3]; 60° C., Week 4): 99.0 area %
Purity (area %) [3, 10]: 98.6* area %
Purity (area %) ([3]; 60° C., Week 6): 99.0 area %
Purity (area %) ([3]; Room conditions, Week 1): 99.2 area %
Purity (area %) ([3]; Room conditions, Week 2): 98.6 area %
Purity (area %) ([3]; Room conditions, Week 4): 98.6 area %
Purity (area %) [3, 11]: 98.2* area %
Purity (area %) ([3]; Room conditions, Week 6): 98.2 area %
Stability at 60° C. in contact with air ([3]; after 6 weeks, XRPD and HPLC): No significant changes by XRPD or HPLC analyses after
Stability at room conditions (25° C. in contact with air) ([3]; after 6 weeks, XRPD and HPLC): No significant changes by XRPD or HPLC analyses after
Stability at 25° C./96% RH ([3]; after 6 weeks, XRPD and purity): No significant changes by XRPD or purity after 6 weeks
Stability at 40° C./75% RH ([3]; after 6 weeks, XRPD and purity): No significant changes by XRPD or purity after 6 weeks
Stability to humidity ([3]; after 6 weeks): No changes observed at elevated
Solubility (volumes) ([4]; BuOAc, 50 volumes): Almost
Solubility (volumes) ([4]; BuOAc, 100 volumes): Almost
Solubility (volumes) ([4]; Ethanol, 50 volumes): Almost
Solubility (volumes) ([4]; IPA, 50 volumes): Almost
Solubility (volumes) ([4]; IPA, 100 volumes): Almost
Solubility (volumes) ([4]; IPAc, 50 volumes): Almost
Solubility (volumes) ([4]; IPAc, 100 volumes): Almost
Solubility (volumes) ([4]; MEK, 20 volumes): Almost
Solubility (volumes) ([4]; MIBK, 50 volumes): Almost
Solubility (volumes) ([4]; MIBK, 100 volumes): Almost
Solubility (volumes) ([4]; MeCN/H2O, 10 volumes): Almost
Solubility (volumes) ([4]; Methanol, 10 volumes): Almost
Solubility (volumes) ([4]; Nitromethane, 10 volumes): Almost
Solubility (volumes) ([4]; Toluene, 50 volumes): Almost

CC1(C)OC(c2ccncc2)=C(c2ccc(OCc3cn4ncccc4n3)cc2)C1=O [amorphous material, 4-(4-(imidazo[1,2-b]pyridazin-2-ylmethoxy)phenyl)-2,2-dimethyl-5-(pyridin-4-yl)furan-3(2H)-one]
Form by XRPD after storage at elevated humidity ([6]; elevated humidity conditions, 24 h): All solids displayed Form 1
Form on standing at room conditions ([6]; typically 25° C., 40% RH): converted to Form 1

CC1(C)OC(c2ccncc2)=C(c2ccc(OCc3cn4ncccc4n3)cc2)C1=O.Cc1ccc(S(=O)(=O)O)cc1.Cc1ccc(S(=O)(=O)O)cc1 [bis-tosylate]
Solubility (mg mL free form equivalent) ([1]; pH point 1.2): 32.29 mg mL free form equivalent
pH of unfiltered saturated solution ([1]; pH point 1.2): 1.21
Solubility (mg mL free form equivalent) ([1]; pH point 4.5): 0.05 mg mL free form equivalent
pH of unfiltered saturated solution ([1]; pH point 4.5): 4.52
Solubility (mg mL free form equivalent) ([1]; pH point 7.4): 0.05 mg mL free form equivalent
pH of unfiltered saturated solution ([1]; pH point 7.4): 7.40
Solubility (mg mL free form equivalent) ([1]; pH point unadjusted aqueous): 29.07 mg mL free form equivalent
pH of unfiltered saturated solution ([1]; pH point unadjusted aqueous): 2.00
Form change by XRPD during GVS [2]: no accompanying form change
GVS water uptake (% of mass) [2]: 3.1%
Form change on storage ([5]; 40° C./75% RH, one week): no form change
